Test results reported in patent publication US10077237B2 (Sanofi, priority 2013, dated 2018).
Values joined by “and” are separate entries in the source; they are usually repeats but may differ in a detail not shown here. Equal entries are not always repeated. Structures can show the parent of a compound that is named as a salt.

Target: T1, recombinant human AMPK complex, containing α2β1γ2 (Homo sapiens, UniProt P54646+Q9Y478)
T1 construct: hsAMPKα2-552-His, hsAMPKβ1-2-270 and hsAMPKγ-2-569 respectively; hsAMPKβ1-2-270; hsAMPKγ-2-569; His (C); made in house; host or cells: Spodoptera frugiperda Sf21 (baculovirus)
Test: AMPK in vitro activation assay (HTRF)
Assay type: biochemical
Details: for EC50: HTRF, recombinant human α2β1γ2 AMPK, 200 μM ATP, biotinylated ACC-CREBp peptide, repeat determinations on separate lines
Experimental: The recombinant human AMPK complex, containing α2β1γ2 was obtained from baculovirus expression system and generated by cotransfection in Spodoptera frugiperda 21 (Sf21). […] were produced in serum free medium (SF900 II, Invitrogen) for 82 hours after a triple infection at a multiplicity of infection (M.O.I.) of 0.05, 0.06 and 0.045 for hsAMPKα2-552-His, hsAMPKβ1-2-270 and hsAMPKγ-2-569 respectively. Cells were harvested by centrifugation at 1,000×g for 10 minutes at 4° C. and stored at −80° C. The insect cell pellet from 8 liters of culture was resuspended and homogenized in 580 ml of lysis buffer (20 mM Hepes pH 7.5, 150 mM NaCl, 10 mM imidazole, 50 mM NaF, 10% Glycerol and supplemented with EDTA free proteases inhibitor cocktail Roche). The AMPK complex was partially purified using an affinity chromatography under a Ni-NTA Agarose column equilibrated in the lysis buffer and eluted with a gradient (0 to 400 mM) of Imidazol.
A homogeneous time-resolved fluorescence (HTRF) assay was used (Li et al, Anal. Biochem. (2003) 321, 151-156) to identify compounds with stimulating activity for the recombinant human AMPK. Enzyme reaction was performed into a 96-well microtiter plate. First, 20 μL of test compounds in 0.5% DMSO were dispensed followed by 10 μL of protein in 50 mM HEPES buffer at pH 7.0, 100 mM NaCl, 5 mM MgCl2, 0.01% BSA, 0.8 mM DTT. After, 30 min incubation at room temperature, the reaction was initiated by the addition of 10 μL of a solution containing 200 μM of ATP as donor substrate, 2 μM or 0.08 μM of biotinylated ACC-CREBp peptide (PolyPeptide) as acceptor. Plates were then incubated 45 min at 37° C. The reaction was terminated by the addition of 40 μl detection mixture containing Eu^3+ cryptate-conjugated anti-pS^133-CREB antibody and streptavidine-XL665 (CisBio). Plates were further incubated for 2 h30 at room temperature. The fluorescence signal was measured using an Envision multireader (Perkin Elmer). The non-specific signal was obtained without substrates. Potentiation of AMPK activity was expressed as a percent over the basal signal (without compound) from which an EC50 value was determined.
The EC50 of a graded dose response curve represents the concentration of a compound where 50% of its maximal effect is observed.

[1] = potentiation of AMPK activity as percent over the basal signal (without compound)

T1 sequence (P54646 2-552): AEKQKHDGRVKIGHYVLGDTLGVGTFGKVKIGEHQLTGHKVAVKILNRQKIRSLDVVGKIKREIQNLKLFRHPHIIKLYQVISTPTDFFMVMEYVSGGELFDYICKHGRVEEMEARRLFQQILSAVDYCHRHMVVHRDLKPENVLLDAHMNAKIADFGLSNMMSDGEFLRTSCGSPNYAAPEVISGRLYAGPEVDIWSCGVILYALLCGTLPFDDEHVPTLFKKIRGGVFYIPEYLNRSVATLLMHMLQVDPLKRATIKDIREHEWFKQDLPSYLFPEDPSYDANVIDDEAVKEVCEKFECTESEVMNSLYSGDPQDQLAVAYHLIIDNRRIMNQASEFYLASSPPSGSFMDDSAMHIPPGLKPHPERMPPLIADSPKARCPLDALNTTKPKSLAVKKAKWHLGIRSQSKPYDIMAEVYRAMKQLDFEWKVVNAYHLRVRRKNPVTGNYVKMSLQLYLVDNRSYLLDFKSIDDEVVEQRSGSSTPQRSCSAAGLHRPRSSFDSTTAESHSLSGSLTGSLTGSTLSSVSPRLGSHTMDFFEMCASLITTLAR
T1 sequence (Q9Y478 2-270): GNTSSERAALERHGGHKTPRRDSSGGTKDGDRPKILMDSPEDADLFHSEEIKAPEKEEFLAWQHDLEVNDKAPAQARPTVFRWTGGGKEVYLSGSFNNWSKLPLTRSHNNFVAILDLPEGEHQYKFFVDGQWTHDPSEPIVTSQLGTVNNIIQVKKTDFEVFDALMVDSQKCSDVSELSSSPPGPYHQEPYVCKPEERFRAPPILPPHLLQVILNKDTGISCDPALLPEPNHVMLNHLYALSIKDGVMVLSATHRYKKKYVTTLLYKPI
T1 sequence (Q9UGJ0 2-569 partner limits assumed): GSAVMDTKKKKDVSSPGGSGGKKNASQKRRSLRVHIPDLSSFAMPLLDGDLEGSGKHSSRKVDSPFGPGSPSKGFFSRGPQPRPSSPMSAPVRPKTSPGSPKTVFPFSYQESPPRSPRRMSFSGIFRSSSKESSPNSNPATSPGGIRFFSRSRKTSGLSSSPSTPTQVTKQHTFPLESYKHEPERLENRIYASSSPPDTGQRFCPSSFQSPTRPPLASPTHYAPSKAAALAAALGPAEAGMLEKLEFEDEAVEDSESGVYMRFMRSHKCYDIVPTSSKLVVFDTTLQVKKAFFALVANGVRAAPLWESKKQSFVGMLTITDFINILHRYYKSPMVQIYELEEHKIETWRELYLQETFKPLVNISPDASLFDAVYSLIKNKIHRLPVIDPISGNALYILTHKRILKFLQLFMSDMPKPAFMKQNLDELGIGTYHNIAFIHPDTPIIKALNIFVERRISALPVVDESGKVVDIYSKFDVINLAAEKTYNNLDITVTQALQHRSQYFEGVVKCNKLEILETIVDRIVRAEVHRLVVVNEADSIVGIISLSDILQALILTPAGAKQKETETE

Row | SMILES | EC50 | Emax [1] | α2β1γ2 AMPK Emax [1]
1 | O=C1Nc2cc(Cl)c(-c3ccc(N4CCOCC4)cc3)cc2C1=C(O)c1cccc(O)c1 [Compound 3, 6-Chloro-3-[1-hydroxy-1-(3-hydroxy-phenyl)-methylidene]-5-(4-morpholin-4-yl-phenyl)-1,3-dihydro-indol-2-one] | 0.19 µM | 138% | –
2 | COc1ccc(C(O)=C2C(=O)Nc3cc(Cl)c(-c4ccc(C5(CO)CC5)cc4)cc32)c(OC)c1 [Compound 163, 6-chloro-3-[(2,4-dimethoxyphenyl)hydroxy-methylene]-5-[4-[1-(hydroxymethyl)cyclopropyl]phenyl]indolin-2-one] | 0.003 µM | 196% | –
3 | COc1cccc(-c2ccc(-c3cc4c(cc3Cl)NC(=O)C4=C(O)c3cc(C)ns3)cc2)c1O [Compound 42, 6-Chloro-5-(2′-hydroxy-3′-methoxy-biphenyl-4-yl)-3-[1-hydroxy-1-(3-methyl-isothiazol-5-yl)-methylidene]-1,3-dihydro-indol-2-one] | 0.027 µM | 132% | –
4 | O=C1Nc2cc(Cl)c(-c3ccc(C4CC(O)C4)cc3)cc2C1=C(O)c1ccc(F)cc1F (stereo not shown) [Compound 155, 6-chloro-3-[(2,4-difluorophenyl)hydroxy-methylene]-5-[4-(3-hydroxycyclobutyl)phenyl]indolin-2-one] | 0.06 µM | 131% | –
5 | COc1cc(C(O)=C2C(=O)Nc3cc(Cl)c(-c4ccc(OCCCN5CCOCC5)cc4)cc32)on1 [Compound 99, 6-chloro-3-[hydroxy-(3-methoxyisoxazol-5-yl)methylene]-5-[4-(3-morpholinopropoxy)phenyl]indolin-2-one] | 0.005 µM | 187% | –
6 | O=C1Nc2cc(Cl)c(-c3ccc(C4(CO)CC4)cc3)cc2C1=C(O)c1cc2cccnc2o1 [Compound 157, 6-chloro-3-[furo[2,3-b]pyridin-2-yl(hydroxy)methylene]-5-[4-[1-(hydroxymethyl)cyclopropyl]phenyl]indolin-2-one] | 0.0006 µM | 141% | –
7 | COc1cc(C(O)=C2C(=O)Nc3cc(Cl)c(-c4ccc(N(C)C)c(F)c4)cc32)on1 [Compound 147, 6-chloro-5-[4-(dimethylamino)-3-fluoro-phenyl]-3-[hydroxy-(3-methoxyisoxazol-5-yl)methylene]indolin-2-one] | 0.015 µM | 267% | –
8 | Cc1cc(C(O)=C2C(=O)Nc3cc(Cl)c(-c4ccc(O)cc4)cc32)on1 [Compound 33, 6-Chloro-3-[1-hydroxy-1-(3-methyl-isoxazol-5-yl)-methylidene]-5-(4-hydroxy-phenyl)-1,3-dihydro-indol-2-one] | 0.39 µM | 120% | –
9 | Cc1nocc1C(O)=C1C(=O)Nc2cc(Cl)c(-c3ccc(N4CCOCC4)cc3)cc21 [Compound 60, 6-Chloro-3-[1-hydroxy-1-(3-methyl-isoxazol-4-yl)-methylidene]-5-(4-morpholin-4-yl-phenyl)-1,3-dihydro-indol-2-one] | 0.77 µM | 298% | –
10 | Cc1cc(C(O)=C2C(=O)Nc3cc(Cl)c(-c4ccc(F)cc4O)cc32)on1 [Compound 56, 6-Chloro-5-(4-fluoro-2-hydroxy-phenyl)-3-[1-hydroxy-1-(3-methyl-isoxazol-5-yl)-methylidene]-1,3-dihydro-indol-2-one] | 0.15 µM | 189% | –
11 | O=C1Nc2cc(Cl)c(-c3ccc(N4CCOCC4)cc3)cc2C1=C(O)c1cccc(C(F)(F)F)c1 [Compound 40, 6-Chloro-3-[1-hydroxy-1-(3-trifluoromethyl-phenyl)-methylidene]-5-(4-morpholin-4-yl-phenyl)-1,3-dihydro-indol-2-one] | 0.72 µM | 121% | –
12 | O=C1Nc2cc(Cl)c(-c3ccc(N4CCOCC4)cc3)cc2C1=C(O)c1cccc(C(=O)O)c1 [Compound 4, 3-{[6-Chloro-5-(4-morpholin-4-yl-phenyl)-2-oxo-1,2-dihydro-indolylidene]-hydroxy-methyl}-benzoic acid] | 0.015 µM | 97% | –
13 | Cc1cc(C(O)=C2C(=O)Nc3cc(Cl)c(-c4ccc(-c5csc(N)n5)cc4)cc32)on1 [Compound 37, 5-[4-(2-Amino-thiazol-4-yl)-phenyl]-6-chloro-3-[1-hydroxy-1-(3-methyl-isoxazol-5-yl)-methylidene]-1,3-dihydro-indol-2-one] | 0.037 µM | 192% | –
14 | O=C1Nc2cc(Cl)c(-c3ccc(C4CC(O)C4)cc3)cc2C1=C(O)c1cc(F)cc(F)c1 (stereo not shown) [Compound 161, 6-chloro-3-[(3,5-difluorophenyl)hydroxy-methylene]-5-[4-(3-hydroxycyclobutyl)phenyl]indolin-2-one] | 0.015 µM | 155% | –
15 | COc1cc(C(O)=C2C(=O)Nc3cc(Cl)c(-c4ccc(N5CCC5)cc4)cc32)on1 [Compound 162, 5-[4-(azetidin-1-yl)phenyl]6-chloro-3-[hydroxy-(3-methoxyisoxazol-5-yl)methylene]indolin-2-one] | 0.0007 µM | 191% | –
16 | Cc1cc(C(O)=C2C(=O)Nc3cc(Cl)c(-c4ccc(OCCCN5CCNCC5)cc4)cc32)on1 [Compound 69, 6-Chloro-3-[1-hydroxy-1-(3-methyl-isoxazol-5-yl)methylidene]-5-[4-(3-piperazin-1-yl-propoxy)phenyl]-1,3-dihydro-indol-2-one, hydrochloride] | 0.008 µM | 134% | –
17 | O=C1Nc2cc(Cl)c(-c3ccc(N4CCOCC4)cc3)cc2C1=C(O)c1cc(Br)no1 [Compound 41, 3-[1-(3-Bromo-isoxazol-5-yl)-1-hydroxy-methylidene]-6-chloro-5-(4-morpholin-4-yl-phenyl)-1,3-dihydro-indol-2-one] | 0.003 µM | 115% | –
18 | O=C1Nc2cc(Cl)c(-c3ccc(C4(CO)CC4)cc3)cc2C1=C([O-])c1ccccc1F.[Na+] [Compound 47, 6-Chloro-3-[1-(2-fluoro-phenyl)-1-hydroxy-methylidene]-5-[4-(1-hydroxymethyl-cyclopropyl)-phenyl]-1,3-dihydro-indol-2-one, sodium salt] | 0.025 µM | – | (94) %
19 | CCOc1ccc(-c2cc3c(cc2Cl)NC(=O)C3=C(O)c2cc(C)no2)cc1 [Compound 66, 6-Chloro-5-(4-ethoxy-phenyl)-3-[1-hydroxy-1-(3-methyl-isoxazol-5-yl)-methylidene]-1,3-dihydro-indol-2-one] | 3.07 µM | 192% | –
20 | Cc1cc(C(O)=C2C(=O)Nc3cc(Cl)c(-c4ccc(OCCCN5CCN(C)CC5)cc4)cc32)on1 [Compound 70, 6-Chloro-3-[1-hydroxy-1-(3-methyl-isoxazol-5-yl)methylidene]-5-{4-[3-(4-methyl-piperazin-1-yl)-propoxy]-phenyl}-1,3-dihydro-indol-2-one, hydrochloride] | 0.088 µM | 142% | –
21 | COc1ccc(C(O)=C2C(=O)Nc3cc(Cl)c(-c4ccc(C5(CO)CC5)cc4)cc32)cc1F [Compound 88, 6-chloro-3-[(3-fluoro-4-methoxy-phenyl)hydroxy-methylene]-5-[4-[1-(hydroxymethyl)cyclopropyl]phenyl]indolin-2-one] | 0.0006 µM and 0.0004 µM | – | –
22 | O=C1Nc2cc(Cl)c(-c3ccc(-c4ccccc4)cc3)cc2C1=C(O)c1ccccc1 [Compound 7, 5-Biphenyl-4-yl-6-chloro-3-[1-hydroxy-1-phenyl-methylidene]-1,3-dihydro-indol-2-one] | 1.4 µM | 57% | –
23 | Cc1ncc(C(O)=C2C(=O)Nc3cc(Cl)c(-c4ccc(N(C)C)cc4)cc32)s1 [Compound 10, 6-Chloro-5-(4-dimethylamino-phenyl)-3-[1-hydroxy-1-(2-methyl-thiazol-5-yl)-methylidene]-1,3-dihydro-indol-2-one] | 0.089 µM | 127% | –
24 | O=C1Nc2cc(Cl)c(-c3ccc(N4CCOCC4)cc3)cc2C1=C(O)c1cccc(N2CCOCC2)c1 [Compound 94, 6-chloro-3-[hydroxy-(3-morpholinophenyl)methylene]-5-(4-morpholinophenyl)indolin-2-one] | 0.014 µM | 150% | –
25 | Cc1cc(C(O)=C2C(=O)Nc3cc(Cl)c(-c4ccc(OCC5COC5)cc4)cc32)on1 [Compound 132, 6-chloro-3-[hydroxy-(3-methylisoxazol-5-yl)methylene]-5-[4-(oxetan-3-ylmethoxy)phenyl]indolin-2-one] | 0.049 µM | 364% | –
